Reference: publication PMC8315011, “The Spleen Tyrosine Kinase Inhibitor, Entospletinib (GS-9973) Restores Chemosensitivity in Lung Cancer Cells by Modulating ABCG2-mediated Multidrug Resistance” (International Journal of Biological Sciences, 2021)

What was measured:
[1] = target: T1, ABCG2 (Homo sapiens, UniProt Q9UNQ0); assay: ABCG2 ATPase stimulation in membrane vesicles ([…] of basal); supported by inhibition of [3H]-mitoxantrone efflux in NCI-H460/MX20 cells at […]; format: biochemical; parameters: membrane vesicles with ABCG2 (PREDEASY ATPase kit)
T1 sequence (Q9UNQ0 1-655): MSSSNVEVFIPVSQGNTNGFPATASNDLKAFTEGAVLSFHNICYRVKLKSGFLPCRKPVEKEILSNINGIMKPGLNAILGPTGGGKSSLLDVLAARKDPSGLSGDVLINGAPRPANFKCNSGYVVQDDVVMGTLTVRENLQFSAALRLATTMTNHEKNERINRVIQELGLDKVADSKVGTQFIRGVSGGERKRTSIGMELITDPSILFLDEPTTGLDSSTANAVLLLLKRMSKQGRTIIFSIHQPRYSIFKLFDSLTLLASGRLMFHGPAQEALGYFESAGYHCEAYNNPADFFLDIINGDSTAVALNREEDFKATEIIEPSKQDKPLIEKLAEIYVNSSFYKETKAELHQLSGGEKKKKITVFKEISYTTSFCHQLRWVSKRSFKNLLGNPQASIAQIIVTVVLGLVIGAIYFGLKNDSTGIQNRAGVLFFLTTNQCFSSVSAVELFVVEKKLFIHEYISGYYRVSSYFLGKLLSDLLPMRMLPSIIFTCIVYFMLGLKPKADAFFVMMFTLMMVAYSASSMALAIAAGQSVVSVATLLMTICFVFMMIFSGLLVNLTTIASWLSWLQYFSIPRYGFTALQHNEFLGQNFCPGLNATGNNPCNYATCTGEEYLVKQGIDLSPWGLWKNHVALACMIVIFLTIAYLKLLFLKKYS

[2] = target: T1, ABCG2

SMILES | EC50 [1] | radiolabelled substrate accumulation and efflux, parental vs ABCG2-overexpressin [2]
c1cn2cc(-c3ccc4cn[nH]c4c3)nc(Nc3ccc(N4CCOCC4)cc3)c2n1 [GS-9973] | 420 nM | –
O=C1c2c(O)ccc(O)c2C(=O)c2c(NCCNCCO)ccc(NCCNCCO)c21 [mitoxantrone] | – | proving that the efflux of [^3H]-mitoxantrone was mediated by the ABCG2 transporter
